Source: patent US8188059B2, “Compounds and methods for modulating expression of GCGR” (Isis Pharmaceuticals, Inc., priority 2006, dated 2012)
Strand notation (5' to 3'): a small letter for the sugar, then the base; units joined by * are phosphorothioate-linked, units joined directly phosphodiester-linked; [ ] holds rarer units or linkages, { } end groups; capitals alone tell only the bases. e = 2'-O-(2-methoxyethyl) (MOE); [5mC] = 5-methylcytosine; d = 2'-deoxy (DNA)

Columns and labels:
[1] = ALT and AST levels, Balb/c mice (Example 3, Table 26); type: in vivo, mouse; conditions: 48 h after final injection
Experimental: (§1) Antisense compound doses included 2.4, 1.2, 0.6, 0.3 and 0.15 μmol/kg. For antisense compounds 14 nucleotides in length, these doses equate to approximately 12, 6, 3, 1.5 or 0.75 mg/kg, respectively. Shown in Table 25 are the sequences and motifs of the antisense compounds used in this study. […] Bolded residues indicate 2′-O-methoxyethyl moieties and italicized residues indicate methyleneoxy (4′-CH2—O-2′) BNAs. The internucleoside linkages of each compound are phosphorothioate throughout. All cytosine residues of ISIS 147764 and ISIS 372938 are replaced by 5-methyl cytosines. For ISIS 387462, only the cytosine residue in the wing of the compound is replaced by 5-methyl cytosine. ApoB antisense compounds are targeted to publicly available ApoB-100 sequences, including Genbank Accession No. XM—137955.5 (SEQ ID NO: 2).
(§2) Forty-eight hours following the final injection, mice were sacrificed to evaluate transaminases (Table 26); liver and kidney weight (Table 27); triglyceride, LDL, HDL and free fatty acid levels (Table 28); target mRNA level in liver (Table 29); target protein level in plasma; and oligonucleotide tissue concentration (Table 30). These endpoints were determined using methods described herein and well known to those of ordinary skill in the art.

[2] = Triglyceride, total cholesterol, HDL, LDL, free fatty acid and glucose levels (Example 3, Table 28); type: in vivo, mouse; set-up: Free Fatty Acid (FFA): unit not given here; conditions: Balb/c mice
Experimental: as §1, §2
Glucose levels also were similar among all treatment groups.

ApoB mRNA = ApoB mRNA level in liver of Balb/c mice, i.p. twice per week for three weeks (Example 3, Table 29); type: in vivo, mouse; conditions: for ApoB mRNA level: Table 30 (rounded); for % ApoB mRNA Level (relative to saline control): liver
Experimental: Prior to quantitative PCR analysis, primer-probe sets specific to the target gene being measured were evaluated for their ability to be “multiplexed” with a GAPDH amplification reaction. After isolation the RNA is subjected to sequential reverse transcriptase (RT) reaction and real-time PCR, both of which are performed in the same well. RT and PCR reagents were obtained from Invitrogen Life Technologies (Carlsbad, Calif.). […] The RT reaction was carried out by incubation for 30 minutes at 48° C. Following a 10 minute incubation at 95° C. to activate the […]® Taq, 40 cycles of a two-step PCR protocol were carried out: 95° C. for 15 seconds (denaturation) followed by 60° C. for 1.5 minutes (annealing/extension).
as §1, §2

[3] = Liver and kidney weight, total body weight and food consumption (Example 3, Table 27); type: in vivo, mouse; conditions: Balb/c mice
Experimental: as §1, §2

[4] = Full-length and total antisense compound tissue concentration in liver and kidney (Example 3, Table 30); type: in vivo, mouse; conditions: Balb/c mice, 2.4 μmol/kg i.p. twice per week for three weeks
Experimental: as §1, §2
To determine whether the observed increase in efficiency with the methyleneoxy (4′-CH2—O-2′) BNA gapmer is due to an increase in oligonucleotide accumulation, full-length and total oligonucleotide concentration in the liver and kidney were determined.

GCGR mRNA = GCGR mRNA levels in liver and estimated ED50, C57/BL6 mice, single i.p. dose (Example 5, Tables 44, 45); type: in vivo, mouse
Experimental: Eight-week old male C57/BL6 mice (Jackson Laboratory, Bar Harbor, Me.) were administered a single dose of GCGR antisense compound by intraperitonel (i.p.) injection at a concentration of 10, 3.2, 1, and 0.32 μmol·kg. Each dose group consisted of four animals. Shown in Table 43 are the sequences, motifs and conjugates of the GCGR antisense compounds used in this study. Bolded residues indicate 2′-O-methoxyethyl (2′-MOE) modifications and the italicized residues indicate methyleneoxy (4′-CH2—O-2′) BNA modifications. All antisense compounds comprise phosphorothioate internucleoside linkages throughout and each cytosine is replaced with 5-methylcytosine. GCGR antisense compounds target published GCGR nucleic acids, including Genbank Accession No. BC031885.1 (SEQ ID NO: 7).
To determine whether the phenotypic changes shown above correlated with a decrease in GCGR mRNA, treated animals were evaluated for levels of target mRNA in liver by RT, real time PCR according to methods described herein. Table 44 show results from direct comparisons of the antisense compounds targeting GCGR nucleic acid for their effect on target expression. Results are expressed as percent of saline control.

rat SGLT2 mRNA = assay: Rat SGLT2 mRNA levels in kidney, 1-10-1 gapmers at 250 nmol/kg, Sprague-Dawley rats (Example 14, Table 66); type: in vivo
Experimental: The effect of the above 1-10-1gapmers (see Table 64 above) on rat SGLT2 mRNA levels. Data are taken from four experiments in which male Sprague-Dawley rats (170-200 g) were dosed twice per week for three weeks with 250 nmol/kg given by intraperitoneal injection. Rats were sacrificed 48 hours following last administration and evaluated for SGLT2 mRNA levels in kidney. Target levels were determined by RT, real-time PCR as described by other examples herein. PCR results were normalized to an internal ISIS control.

[5] = 2.4 μmol/kg i.p. twice per week for three weeks
[6] = 0.15 μmol/kg i.p. twice per week for three weeks
[7] = 0.3 μmol/kg i.p. twice per week for three weeks
[8] = 0.6 μmol/kg i.p. twice per week for three weeks
[9] = 1.2 μmol/kg i.p. twice per week for three weeks

With “147764 (antisense eG*eT*e[5mC]*e[5mC]*e[5mC]*dT*dG*dA*dA*dG*dA*dT*dG*dT*d[5mC]*eA*eA*eT*eG*e[5mC]) [compound 147764]” the ALT [1, 5] was 29.5 IU/L, the AST [1, 5] was 64.0 IU/L and the “Free Fatty Acid (FFA)” value [2, 5] was 1.29. The HDL [2, 5] was 81.3 mg/dL, the LDL [2, 5] was 10.3 mg/dL and the “Total Cholesterol (CHOL)” value [2, 5] was 107 mg/dL. The “Triglyceride (TRIG)” value [2, 5] was 167 mg/dL, the “ApoB mRNA level” value (ApoB mRNA; [5]) was 58 % of saline control and the “% ApoB mRNA Level (relative to saline control)” value (ApoB mRNA; [5]) was 57.7%. For the same substance, the “Kidney Weight” value [3, 5] was 105 % of saline control, the “Liver Weight” value [3, 5] was 102 % of saline control and the “Kidney Full-Length antisense compound tissue concentration” value [4] was 28.6 µM. For the same substance, the “Kidney Total antisense compound tissue concentration” value [4] was 33.5 µM, the “Liver Full-Length antisense compound tissue concentration” value [4] was 22.9 µM and the “Liver Total antisense compound tissue concentration” value [4] was 31.3 µM.
With “372938 (antisense eG*eG*dT*dA*d[5mC]*dA*dT*dG*dG*dA*dA*dG*eT*e[5mC]) [compound 372938]” the ALT [1, 6] was 28.3 IU/L, the AST [1, 6] was 50.3 IU/L and the ALT [1, 7] was 28.3 IU/L. The AST [1, 7] was 60.0 IU/L, the ALT [1, 8] was 28.0 IU/L and the AST [1, 8] was 79.3 IU/L. For the same substance, the ALT [1, 9] was 24.8 IU/L, the AST [1, 9] was 49.5 IU/L and the ALT [1, 5] was 26.0 IU/L. The AST [1, 5] was 49.0 IU/L, the “Free Fatty Acid (FFA)” value [2, 6] was 1.57 and the HDL [2, 6] was 82.8 mg/dL. The LDL [2, 6] was 10.8 mg/dL, the “Total Cholesterol (CHOL)” value [2, 6] was 106 mg/dL and the “Triglyceride (TRIG)” value [2, 6] was 151 mg/dL. For the same substance, the “Free Fatty Acid (FFA)” value [2, 7] was 1.53, the HDL [2, 7] was 84.3 mg/dL and the LDL [2, 7] was 11.0 mg/dL. For the same substance, the “Total Cholesterol (CHOL)” value [2, 7] was 109 mg/dL, the “Triglyceride (TRIG)” value [2, 7] was 138 mg/dL and the “Free Fatty Acid (FFA)” value [2, 8] was 1.66. The HDL [2, 8] was 83.3 mg/dL, the LDL [2, 8] was 10.8 mg/dL and the “Total Cholesterol (CHOL)” value [2, 8] was 110 mg/dL. For the same substance, the “Triglyceride (TRIG)” value [2, 8] was 184 mg/dL, the “Free Fatty Acid (FFA)” value [2, 9] was 1.70 and the HDL [2, 9] was 77.8 mg/dL. The LDL [2, 9] was 9.5 mg/dL, the “Total Cholesterol (CHOL)” value [2, 9] was 101 mg/dL and the “Triglyceride (TRIG)” value [2, 9] was 136 mg/dL. For the same substance, the “Free Fatty Acid (FFA)” value [2, 5] was 1.28, the HDL [2, 5] was 79.0 mg/dL and the LDL [2, 5] was 10.3 mg/dL. For the same substance, the “Total Cholesterol (CHOL)” value [2, 5] was 104 mg/dL, the “Triglyceride (TRIG)” value [2, 5] was 153 mg/dL and the “ApoB mRNA level” value (ApoB mRNA; [5]) was 77 % of saline control. For the same substance, the “% ApoB mRNA Level (relative to saline control)” value (ApoB mRNA; [6]) was 93.1%, the “% ApoB mRNA Level (relative to saline control)” value (ApoB mRNA; [7]) was 92.6% and the “% ApoB mRNA Level (relative to saline control)” value (ApoB mRNA; [8]) was 87.3%. The “% ApoB mRNA Level (relative to saline control)” value (ApoB mRNA; [9]) was 90.0%, the “% ApoB mRNA Level (relative to saline control)” value (ApoB mRNA; [5]) was 77.0% and the “Kidney Weight” value [3, 6] was 98 % of saline control. The “Liver Weight” value [3, 6] was 96 % of saline control, the “Kidney Weight” value [3, 7] was 107 % of saline control and the “Liver Weight” value [3, 7] was 91 % of saline control. For the same substance, the “Kidney Weight” value [3, 8] was 112 % of saline control, the “Liver Weight” value [3, 8] was 96 % of saline control and the “Kidney Weight” value [3, 9] was 101 % of saline control. The “Liver Weight” value [3, 9] was 90 % of saline control, the “Kidney Weight” value [3, 5] was 100 % of saline control and the “Liver Weight” value [3, 5] was 100 % of saline control. For the same substance, the “Kidney Full-Length antisense compound tissue concentration” value [4] was 32.0 µM, the “Kidney Total antisense compound tissue concentration” value [4] was 34.0 µM and the “Liver Full-Length antisense compound tissue concentration” value [4] was 5.49 µM. For the same substance, the “Liver Total antisense compound tissue concentration” value [4] was 7.76 µM.
For “396145 (antisense eA*eT*eG*eG*e[5mC]*dT*dT*d[5mC]*dT*d[5mC]*d[5mC]*dA*dT*d[5mC]*dA*eT*eA*eT*e[5mC]*e[5mC]) [compound 396145]”, the “GCGR mRNA levels in liver” value (GCGR mRNA; 3.2 μmol/kg single i.p.) was 33% of saline control and the “GCGR mRNA levels in liver” value (GCGR mRNA; 10 μmol/kg single i.p.) was 8% of saline control.
With “ISIS 381408: SGLT2; 1-10-1 MOE gapmer (antisense TACCGAACACCT; sugars from the 5' end e1 d10 e1, backbone and methylation of C not given here)” the “% change in SGLT2 expression relative to saline” value (rat SGLT2 mRNA; 250 nmol/kg i.p. twice per week for three weeks, Sprague-Dawley rats, kidney) was −5% and the “expression of SGLT2 in vivo” value (rat SGLT2 mRNA; rat kidney, 250 nmol/kg twice per week for three weeks) was “Activity of ISIS 381408 has been shown”.
